In one assay the test system is E. faecium isolates. Description: Minimal inhibitory concentration of antibacterial agents, "Eiken" DP42 dry plate. The assay is classed as cell-based, Enterococcus faecium. The note with it: all E. faecium (19 strains). The protocol:
(§1) The sensitivity to an antibacterial agent for each of the above-described 30 Enterococcus bacterial strains was invenstigated. Specifically, the bacterial strains prepared in 1 McFarland standard with physiological saline were diluted 500-fold with a BHI culture medium, and then aerobically cultured in solid-phase wells of an “Eiken” DP42 dry plate (Eiken Chemical Co., Ltd., Tokyo, Japan) for 24 hours.
(§2) The minimal inhibitory concentration of any one of the antibacterial agents, i.e., daptomycin (DAP), vancomycin (VCM), teicoplanin (TEIC), and linezolid (LZD), was determined in accordance with the instruction of the product. […] The results obtained by testing resistance to the antibacterial agents of the E. faecalis strains (11 strains) are shown in Table 1 below.

Another assay has as its system E. faecalis isolates. Described as above. The class given is cell-based, Enterococcus faecalis. The note with it: for MIC: Enterococcus faecalis, read-out: Minimal inhibitory concentration; for Sensitivity of strains to antibacterial agent: all E. faecalis strains (11 strains). The protocol:
as §1, §2

Setting [1] is: E. faecalis strain OCU009_35_10.
The mark [2] stands for this setting: E. faecalis strain OCU031_pre_6.
[3] abbreviates: E. faecalis strain OCU031_pre_7.
[4] abbreviates: E. faecalis strain OCU031_pre_10.

In brackets after ≈: the same amount, converted by molar mass. A value given as a limit tells only on which side of the number the result lay.

This is an account of results in patent publication US20250290057A1, “LYTIC AGENT FOR ENTEROCOCCUS FAECALIS” (priority 2022, published 2025).

On to `CCCCCCCCCC(=O)N[C@@H](Cc1c[nH]c2ccccc12)C(=O)N[C@H](CC(N)=O)C(=O)N[C@@H](CC(=O)O)C(=O)N[C@@H]1C(=O)NCC(=O)N[C@@H](CCCN)C(=O)N[C@@H](CC(=O)O)C(=O)N[C@H](C)C(=O)N[C@@H](CC(=O)O)C(=O)NCC(=O)N[C@H](CO)C(=O)N[C@@H]([C@H](C)CC(=O)O)C(=O)N[C@@H](CC(=O)c2ccccc2N)C(=O)O[C@@H]1C` [daptomycin], for which the “Sensitivity of strains to antibacterial agent” value (“Sensitivity of strains” below) with E. faecium isolates and with E. faecalis isolates was “exhibited sensitivity” each time. Moreover, the Minimal inhibitory concentration in the assay on E. faecalis isolates (E. faecalis strain OCU009_35_4), with E. faecalis isolates (setting [1]), with E. faecalis isolates (E. faecalis strain OCU015_56_6), with E. faecalis isolates (E. faecalis strain OCU031_7_1), in the assay on E. faecalis isolates (E. faecalis strain OCU031_7_9) and in the assay on E. faecalis isolates (E. faecalis strain OCU031_14_5) was more than 4 µg/mL in each case. Further, the Minimal inhibitory concentration with E. faecalis isolates (E. faecalis strain OCU031_14_8), in the assay with E. faecalis isolates (setting [2]), with E. faecalis isolates (setting [3]) and with E. faecalis isolates (setting [4]) was more than 4 µg/mL throughout. Moreover, the MIC in the assay on E. faecalis isolates (E. faecalis strain OCU015_56_7) was more than 4 µg/mL.
For `CC(=O)NC[C@H]1CN(c2ccc(N3CCOCC3)c(F)c2)C(=O)O1` [linezolid], the “Sensitivity of strains” value with E. faecium isolates and with E. faecalis isolates was “exhibited sensitivity” throughout. Also, the Minimal inhibitory concentration in the assay on E. faecalis isolates (E. faecalis strain OCU009_35_4), with E. faecalis isolates (setting [1]), in the assay on E. faecalis isolates (E. faecalis strain OCU015_56_6), in the assay on E. faecalis isolates (E. faecalis strain OCU031_7_1), in the assay with E. faecalis isolates (E. faecalis strain OCU031_7_9) and in the assay with E. faecalis isolates (E. faecalis strain OCU031_14_5) was 2 µg/mL (≈ 5.93 µM) each time. In addition, the Minimal inhibitory concentration in the assay with E. faecalis isolates (E. faecalis strain OCU031_14_8), with E. faecalis isolates (setting [2]), with E. faecalis isolates (setting [3]) and with E. faecalis isolates (setting [4]) was 2 µg/mL (≈ 5.93 µM) in each case. Besides, the MIC with E. faecalis isolates (E. faecalis strain OCU015_56_7) was determined as 2 µg/mL (≈ 5.93 µM).
Turning to teicoplanin, the “Sensitivity of strains” value in the assay with E. faecium isolates and in the assay with E. faecalis isolates was “exhibited sensitivity” each time. Further, the Minimal inhibitory concentration with E. faecalis isolates (E. faecalis strain OCU009_35_4) is 1 µg/mL; in the assay on E. faecalis isolates (setting [1]), 2 µg/mL; with E. faecalis isolates (E. faecalis strain OCU015_56_6) it was 0.5 µg/mL; with E. faecalis isolates (E. faecalis strain OCU015_56_7) it was 0.5 µg/mL; in the assay with E. faecalis isolates (E. faecalis strain OCU031_7_1) it was 2 µg/mL; with E. faecalis isolates (E. faecalis strain OCU031_7_9) it was 2 µg/mL. For the same molecule, the Minimal inhibitory concentration with E. faecalis isolates (E. faecalis strain OCU031_14_5), with E. faecalis isolates (E. faecalis strain OCU031_14_8), with E. faecalis isolates (setting [2]), in the assay with E. faecalis isolates (setting [3]) and in the assay with E. faecalis isolates (setting [4]) was 1 µg/mL each time.
